{"source": "paper PMC5297726", "about": "“Anti-Neuroblastoma Properties of a Recombinant Sunflower Lectin” (International Journal of Molecular Sciences, 2017)", "target": "T1, Trx-rHelja (Helianthus annuus, UniProt A0A059VAE5)", "T1 construct": "N-terminal thioredoxin, His6 and enterokinase-site tags kept; E. coli Rosetta-gami2 (DE3) pLysS; about 35 kDa fusion (Helja about 20 kDa)", "T1 sequence (A0A059VAE5 entry or part of it)": "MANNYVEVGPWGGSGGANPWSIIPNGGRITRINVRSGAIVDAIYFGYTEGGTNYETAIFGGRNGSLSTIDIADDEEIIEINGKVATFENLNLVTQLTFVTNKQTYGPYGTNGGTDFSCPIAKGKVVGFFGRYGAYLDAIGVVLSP", "experiment": "affinity chromatography on D-mannose-agarose, elution with mannose, SDS-PAGE", "type": "binding", "settings": "50 mM Tris-HCl pH 7.5, 100 mM NaCl; D-mannose immobilised on agarose; eluted with 200 mM free mannose", "data": [{"compound": "OC[C@H]1OC(O)[C@@H](O)[C@@H](O)[C@@H]1O", "note": "(stereo partly shown) [mannose]", "values": [{"measurement": "affinity chromatography on D-mannose-agarose, elution with mannose, SDS-PAGE", "value": "the recombinant protein was bounded to the matrix and eluted with mannose"}]}]}
